The text below walks through data of ChEMBL document CHEMBL1201862, “PubChem BioAssay data set” (2004).

Test [1] addresses T1, Zinc finger protein mex-5 (Caenorhabditis elegans, UniProt Q9XUB2).
T1 sequence (Q9XUB2 whole entry): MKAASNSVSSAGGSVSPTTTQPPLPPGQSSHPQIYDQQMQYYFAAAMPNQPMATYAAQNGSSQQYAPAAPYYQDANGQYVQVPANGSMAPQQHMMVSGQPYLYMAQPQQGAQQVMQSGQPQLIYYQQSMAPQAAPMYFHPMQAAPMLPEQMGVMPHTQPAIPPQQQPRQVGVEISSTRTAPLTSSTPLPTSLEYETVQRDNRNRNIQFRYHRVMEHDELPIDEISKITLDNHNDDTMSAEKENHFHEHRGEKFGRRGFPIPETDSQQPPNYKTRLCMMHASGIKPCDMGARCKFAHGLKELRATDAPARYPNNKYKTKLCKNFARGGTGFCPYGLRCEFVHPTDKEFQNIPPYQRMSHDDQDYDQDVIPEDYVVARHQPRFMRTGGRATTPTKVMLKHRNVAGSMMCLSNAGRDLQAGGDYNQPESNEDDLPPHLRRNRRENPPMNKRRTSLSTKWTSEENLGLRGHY
Put plainly: MEX-5/TCR-2 RNA interaction inhibitors, dose response, biochemical, C. elegans, fluorescence polarization (AID 1960). (In general: In fluorescence polarisation assays a small probe gives low polarisation when free and higher when bound to something large.)

Another test addresses Genome polyprotein (dengue virus type 2, UniProt P29990). Put plainly: Dengue-2 NS5 methyltransferase inhibitors, primary screen, biochemical, confirmation dose response (AID 588689). The format is functional.
Test [2] concerns the target T2, Rac GTPase-activating protein 1 (Homo sapiens, UniProt Q9H0H5).
T2 sequence (Q9H0H5 whole entry): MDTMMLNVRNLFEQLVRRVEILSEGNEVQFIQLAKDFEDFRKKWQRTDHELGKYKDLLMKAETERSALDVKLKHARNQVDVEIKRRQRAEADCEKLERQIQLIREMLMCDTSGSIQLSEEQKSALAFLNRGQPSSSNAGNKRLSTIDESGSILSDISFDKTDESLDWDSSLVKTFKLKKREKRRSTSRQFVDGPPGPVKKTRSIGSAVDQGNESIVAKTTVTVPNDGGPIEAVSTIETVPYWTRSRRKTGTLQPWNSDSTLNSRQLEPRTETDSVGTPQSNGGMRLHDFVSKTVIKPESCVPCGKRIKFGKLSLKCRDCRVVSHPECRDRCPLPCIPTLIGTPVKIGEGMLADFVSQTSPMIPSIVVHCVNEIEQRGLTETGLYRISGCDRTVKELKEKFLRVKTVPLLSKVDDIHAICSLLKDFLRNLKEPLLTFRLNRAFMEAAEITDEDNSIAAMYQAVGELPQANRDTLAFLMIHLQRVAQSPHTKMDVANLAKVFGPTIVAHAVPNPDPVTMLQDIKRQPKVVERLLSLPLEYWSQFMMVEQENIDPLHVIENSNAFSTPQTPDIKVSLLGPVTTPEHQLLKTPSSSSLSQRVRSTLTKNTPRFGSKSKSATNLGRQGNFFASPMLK
Put plainly: MgcRacGAP GTPase-activating activity inhibitors, confirmation, biochemical, ADP Hunter fluorescence, primary and confirmatory (AID 624330). The format is functional.

Test [3] has as its target Tyrosine-protein kinase JAK2 (Homo sapiens, UniProt O60674). The format is functional.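 Note: JAK2 tested as one member of a kinase panel.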
The target in test [4] is Serine/threonine-protein kinase PLK4 (Homo sapiens, UniProt O00444). The format is functional.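 Note: PLK4 measured as one member of a kinome-wide kinase profiling panel.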
Test [5] addresses Serine/threonine-protein kinase Chk2 (Homo sapiens, UniProt O96017). The test is classed as functional.
Test [6] concerns the target Mitogen-activated protein kinase 8 (Homo sapiens, UniProt P45983). The format is functional.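 Note: value comes from one member of a kinome-wide kinase profiling panel.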
For test [7], the target named is Mast/stem cell growth factor receptor Kit (Homo sapiens, UniProt P10721). The format is functional.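 Note: KIT entry within a kinase panel assay.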
For test [8], the target named is Fibroblast growth factor receptor 1 (Homo sapiens, UniProt P11362). The test is classed as functional.
Test [9] concerns the target Tyrosine-protein kinase JAK3 (Homo sapiens, UniProt P52333). The test is classed as functional.
For test [10], the target named is Casein kinase I isoform gamma-1 (Homo sapiens, UniProt Q9HCP0). The test is classed as functional.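 Note: measured as the CSNK1G1 member of a kinome profiling panel.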
In test [11] the target is Tyrosine-protein kinase ITK/TSK (Homo sapiens, UniProt Q08881). The test is classed as functional.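 Note: affinity for ITK measured as one member of a broad kinase panel profiling binding across the kinome.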
Test [12] deals with Serine/threonine-protein kinase TAO1 (Homo sapiens, UniProt Q7L7X3). The test is classed as functional.
Test [13] deals with Glycogen synthase kinase-3 alpha (Homo sapiens, UniProt P49840). The format is functional.
In test [14] the target is Receptor-type tyrosine-protein kinase FLT3 (Homo sapiens, UniProt P36888). The format is functional.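 Note: FLT3 was tested as one member of a kinome-wide kinase panel.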
Test [15] concerns the target MAP kinase-interacting serine/threonine-protein kinase 2 (Homo sapiens, UniProt Q9HBH9). The format is functional.
Test [16] concerns the target Calcium/calmodulin-dependent protein kinase type II subunit beta (Homo sapiens, UniProt Q13554). The test is classed as functional.
Test [17] has as its target Insulin-like growth factor 1 receptor (Homo sapiens, UniProt P08069). In words: Navigating the Kinome. Panel member name: IGF1R. The format is functional.
Another test has as its target Misshapen-like kinase 1 (Homo sapiens, UniProt Q8N4C8). The format is functional.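 Note: kinome panel screen with MINK as the panel member.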
In test [18] the target is cAMP-dependent protein kinase catalytic subunit PRKX (Homo sapiens, UniProt P51817). The test is classed as functional.
The next test has as its target Aurora kinase B (Homo sapiens, UniProt Q96GD4). The test is classed as functional.
Test [19] has as its target RAC-alpha serine/threonine-protein kinase (Homo sapiens, UniProt P31749). The test is classed as functional.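 Note: AKT1 affinity measured as one member of a kinome-wide kinase profiling panel.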
In test [20] the target is Homeodomain-interacting protein kinase 4 (Homo sapiens, UniProt Q8NE63). The format is functional.
The target in test [21] is Cyclin-dependent kinase 8 (Homo sapiens, UniProt P49336). In words: Navigating the Kinome. Panel member name: CDK8. The test is classed as functional.
Test [22] deals with Cyclin-dependent kinase 9 (Homo sapiens, UniProt P50750). The format is functional.
For test [23], the target named is Macrophage colony-stimulating factor 1 receptor (Homo sapiens, UniProt P07333). The test is classed as functional.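 Note: value comes from the Navigating the Kinome screening panel, CSF1R member.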
Test [24] deals with Dual specificity tyrosine-phosphorylation-regulated kinase 1A (Homo sapiens, UniProt Q13627). The test is classed as functional.
In test [25] the target is Leukocyte tyrosine kinase receptor (Homo sapiens, UniProt P29376). In words: Navigating the Kinome. Panel member name: LTK. The test is classed as functional.
In test [26] the target is Mitogen-activated protein kinase 14 (Homo sapiens, UniProt Q16539). The test is classed as functional.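 Note: part of a kinome-wide panel, MAPK14 entry.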
For test [27], the target named is Tyrosine-protein kinase FRK (Homo sapiens, UniProt P42685). The format is functional.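 Note: FRK tested as one member of a kinome panel.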

Calls of active or inactive are those of the source.

Chain of Receptor-type tyrosine-protein kinase FLT3 (P36888 whole entry): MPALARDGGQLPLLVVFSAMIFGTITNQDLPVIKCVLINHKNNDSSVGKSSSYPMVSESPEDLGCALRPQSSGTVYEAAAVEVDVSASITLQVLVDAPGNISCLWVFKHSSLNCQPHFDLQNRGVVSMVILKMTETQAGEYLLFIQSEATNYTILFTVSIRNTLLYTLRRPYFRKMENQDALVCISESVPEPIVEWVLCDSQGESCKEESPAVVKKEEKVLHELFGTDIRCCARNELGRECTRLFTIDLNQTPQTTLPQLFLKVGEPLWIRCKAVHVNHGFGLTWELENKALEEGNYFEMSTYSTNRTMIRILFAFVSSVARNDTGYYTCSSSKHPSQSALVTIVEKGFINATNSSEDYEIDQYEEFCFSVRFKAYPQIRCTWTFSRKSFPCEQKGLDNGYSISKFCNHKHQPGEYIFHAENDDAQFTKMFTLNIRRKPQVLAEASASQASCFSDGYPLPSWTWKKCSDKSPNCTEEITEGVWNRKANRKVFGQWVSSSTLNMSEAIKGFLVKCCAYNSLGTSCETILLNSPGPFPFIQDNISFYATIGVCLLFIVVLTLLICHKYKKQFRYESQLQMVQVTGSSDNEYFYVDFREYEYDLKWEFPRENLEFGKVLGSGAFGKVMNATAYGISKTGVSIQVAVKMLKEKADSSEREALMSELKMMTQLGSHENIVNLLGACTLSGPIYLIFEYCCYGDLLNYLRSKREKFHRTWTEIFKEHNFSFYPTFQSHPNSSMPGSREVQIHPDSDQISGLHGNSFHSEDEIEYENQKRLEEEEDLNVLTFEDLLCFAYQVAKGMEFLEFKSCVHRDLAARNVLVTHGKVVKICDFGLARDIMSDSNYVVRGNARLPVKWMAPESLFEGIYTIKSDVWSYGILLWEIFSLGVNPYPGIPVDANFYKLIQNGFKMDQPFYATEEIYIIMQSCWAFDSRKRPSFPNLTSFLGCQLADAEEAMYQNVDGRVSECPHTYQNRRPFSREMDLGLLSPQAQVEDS
Chain of Serine/threonine-protein kinase Chk2 (O96017 whole entry): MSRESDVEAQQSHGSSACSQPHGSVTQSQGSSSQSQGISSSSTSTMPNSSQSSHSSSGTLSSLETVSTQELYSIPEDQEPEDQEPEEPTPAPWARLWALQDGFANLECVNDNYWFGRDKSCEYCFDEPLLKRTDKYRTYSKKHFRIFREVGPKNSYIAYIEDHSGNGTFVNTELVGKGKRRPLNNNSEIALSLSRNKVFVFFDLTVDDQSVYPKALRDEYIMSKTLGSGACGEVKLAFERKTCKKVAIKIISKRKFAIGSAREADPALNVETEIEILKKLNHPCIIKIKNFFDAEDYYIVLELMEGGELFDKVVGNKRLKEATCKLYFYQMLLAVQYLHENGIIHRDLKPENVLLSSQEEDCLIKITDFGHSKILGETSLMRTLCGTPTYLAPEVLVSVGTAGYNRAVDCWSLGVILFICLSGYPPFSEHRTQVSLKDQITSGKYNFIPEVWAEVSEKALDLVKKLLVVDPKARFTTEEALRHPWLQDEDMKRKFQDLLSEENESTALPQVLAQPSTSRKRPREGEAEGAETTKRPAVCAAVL
Chain of Cyclin-dependent kinase 8 (P49336 whole entry): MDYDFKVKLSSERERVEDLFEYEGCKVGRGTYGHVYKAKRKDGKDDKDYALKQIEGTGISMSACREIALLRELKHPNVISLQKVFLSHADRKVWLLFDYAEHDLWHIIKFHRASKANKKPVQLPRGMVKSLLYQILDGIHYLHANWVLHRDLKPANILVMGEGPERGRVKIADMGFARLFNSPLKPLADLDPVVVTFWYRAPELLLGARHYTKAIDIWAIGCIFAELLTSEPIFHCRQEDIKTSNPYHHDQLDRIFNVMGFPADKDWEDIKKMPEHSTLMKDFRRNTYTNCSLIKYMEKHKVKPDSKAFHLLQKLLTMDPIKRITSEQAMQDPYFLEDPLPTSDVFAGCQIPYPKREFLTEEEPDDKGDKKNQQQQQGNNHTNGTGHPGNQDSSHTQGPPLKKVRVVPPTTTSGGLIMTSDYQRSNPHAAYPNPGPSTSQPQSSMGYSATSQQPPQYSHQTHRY
Chain of Calcium/calmodulin-dependent protein kinase type II subunit beta (Q13554 whole entry): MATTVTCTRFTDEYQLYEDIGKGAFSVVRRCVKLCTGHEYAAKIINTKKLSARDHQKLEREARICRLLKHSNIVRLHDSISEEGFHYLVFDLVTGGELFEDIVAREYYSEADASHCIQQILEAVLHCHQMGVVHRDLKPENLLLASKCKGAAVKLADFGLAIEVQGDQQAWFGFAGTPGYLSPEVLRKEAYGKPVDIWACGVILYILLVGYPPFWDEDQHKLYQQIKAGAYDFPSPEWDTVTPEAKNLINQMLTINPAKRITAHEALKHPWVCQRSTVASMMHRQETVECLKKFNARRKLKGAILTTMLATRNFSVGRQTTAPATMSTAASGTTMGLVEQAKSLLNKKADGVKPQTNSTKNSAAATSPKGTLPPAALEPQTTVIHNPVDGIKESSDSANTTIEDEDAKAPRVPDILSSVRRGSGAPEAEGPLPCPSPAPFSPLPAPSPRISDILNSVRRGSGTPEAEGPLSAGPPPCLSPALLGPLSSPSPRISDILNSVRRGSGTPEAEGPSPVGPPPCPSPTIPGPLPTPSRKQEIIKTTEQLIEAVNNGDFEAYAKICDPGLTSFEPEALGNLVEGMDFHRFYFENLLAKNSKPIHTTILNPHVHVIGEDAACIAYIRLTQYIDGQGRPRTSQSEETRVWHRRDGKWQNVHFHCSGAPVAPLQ
Chain of cAMP-dependent protein kinase catalytic subunit PRKX (P51817 whole entry): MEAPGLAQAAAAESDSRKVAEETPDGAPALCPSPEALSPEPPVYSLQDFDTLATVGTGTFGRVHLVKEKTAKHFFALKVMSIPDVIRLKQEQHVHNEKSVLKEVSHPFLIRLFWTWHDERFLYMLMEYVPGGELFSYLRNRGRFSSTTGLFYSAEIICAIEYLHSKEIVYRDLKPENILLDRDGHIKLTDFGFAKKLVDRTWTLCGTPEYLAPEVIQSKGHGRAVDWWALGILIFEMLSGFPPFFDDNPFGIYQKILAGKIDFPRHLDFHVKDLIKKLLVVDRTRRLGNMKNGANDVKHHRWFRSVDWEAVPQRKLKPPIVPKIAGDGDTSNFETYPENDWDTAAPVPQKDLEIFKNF
Chain of Aurora kinase B (Q96GD4 whole entry): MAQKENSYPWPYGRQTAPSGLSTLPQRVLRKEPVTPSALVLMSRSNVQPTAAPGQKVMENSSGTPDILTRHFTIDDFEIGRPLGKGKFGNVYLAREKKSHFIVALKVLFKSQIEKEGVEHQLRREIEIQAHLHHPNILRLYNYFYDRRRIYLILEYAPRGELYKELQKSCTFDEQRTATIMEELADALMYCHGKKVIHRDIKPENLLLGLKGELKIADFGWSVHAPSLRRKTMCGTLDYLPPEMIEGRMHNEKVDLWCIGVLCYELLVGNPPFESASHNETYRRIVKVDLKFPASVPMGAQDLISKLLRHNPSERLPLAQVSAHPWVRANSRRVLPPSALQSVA
Chain of Tyrosine-protein kinase JAK3 (P52333 whole entry, canonical isoform): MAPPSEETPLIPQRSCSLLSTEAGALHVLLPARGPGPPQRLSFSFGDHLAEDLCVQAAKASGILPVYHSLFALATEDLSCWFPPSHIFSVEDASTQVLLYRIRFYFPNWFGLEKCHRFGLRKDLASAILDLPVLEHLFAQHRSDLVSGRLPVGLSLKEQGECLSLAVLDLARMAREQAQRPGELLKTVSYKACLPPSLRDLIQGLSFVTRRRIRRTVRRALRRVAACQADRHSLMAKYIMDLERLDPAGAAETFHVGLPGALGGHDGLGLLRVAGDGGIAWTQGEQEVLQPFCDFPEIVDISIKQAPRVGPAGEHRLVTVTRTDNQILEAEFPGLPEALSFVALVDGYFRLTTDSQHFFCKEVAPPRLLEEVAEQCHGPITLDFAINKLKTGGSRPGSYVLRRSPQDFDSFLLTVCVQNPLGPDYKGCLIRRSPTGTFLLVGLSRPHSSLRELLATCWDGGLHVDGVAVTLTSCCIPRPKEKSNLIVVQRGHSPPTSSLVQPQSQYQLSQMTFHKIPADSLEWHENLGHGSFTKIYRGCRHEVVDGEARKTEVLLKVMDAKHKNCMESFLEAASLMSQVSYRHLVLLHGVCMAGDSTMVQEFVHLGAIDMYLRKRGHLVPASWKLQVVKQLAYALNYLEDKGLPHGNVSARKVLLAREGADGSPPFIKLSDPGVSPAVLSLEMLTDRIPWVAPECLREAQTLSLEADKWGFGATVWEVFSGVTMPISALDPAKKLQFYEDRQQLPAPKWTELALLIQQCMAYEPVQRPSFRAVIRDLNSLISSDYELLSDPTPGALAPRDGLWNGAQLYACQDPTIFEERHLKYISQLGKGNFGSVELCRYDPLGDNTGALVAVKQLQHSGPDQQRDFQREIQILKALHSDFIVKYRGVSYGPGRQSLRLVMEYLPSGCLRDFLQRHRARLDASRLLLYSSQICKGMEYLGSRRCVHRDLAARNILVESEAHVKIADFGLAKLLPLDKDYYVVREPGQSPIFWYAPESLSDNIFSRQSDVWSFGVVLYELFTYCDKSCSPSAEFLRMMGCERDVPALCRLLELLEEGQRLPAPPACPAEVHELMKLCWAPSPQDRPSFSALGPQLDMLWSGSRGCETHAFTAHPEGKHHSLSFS
Chain of Mitogen-activated protein kinase 14 (Q16539 whole entry): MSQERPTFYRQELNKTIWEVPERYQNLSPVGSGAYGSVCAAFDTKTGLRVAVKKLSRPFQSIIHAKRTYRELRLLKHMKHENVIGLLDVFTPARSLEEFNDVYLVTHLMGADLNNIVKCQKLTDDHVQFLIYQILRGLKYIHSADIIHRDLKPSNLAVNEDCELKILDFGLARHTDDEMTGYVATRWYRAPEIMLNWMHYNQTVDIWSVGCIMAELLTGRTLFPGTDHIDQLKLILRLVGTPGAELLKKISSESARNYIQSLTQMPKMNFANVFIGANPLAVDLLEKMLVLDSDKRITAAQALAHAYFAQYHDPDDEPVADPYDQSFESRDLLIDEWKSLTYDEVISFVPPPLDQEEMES

Turning to `Cc1ccc(/C=C2/C(=O)c3ccc(C(=O)O)cc3C2=O)o1`, the half-maximal effective concentration (EC50) in [1] was 63.6 µM (active). Further, the IC50 at Genome polyprotein is 40.1 µM (active); in test [2], 294 µM (active).
For the compound `Clc1cc(NC2CCCCC2)nc(-c2c[nH]c3ncccc23)n1`, the Ki is > 2.51 µM (inactive) in [3]; > 3.98 µM (inactive) in test [4]; 0.316 µM (active) in [5]; 2.51 µM (active) in [6]; > 1.26 µM (inactive) in test [7]; > 3.98 µM (inactive) in test [8]. The Ki in test [9] is > 2 µM (inactive); in test [10] it was 2.51 µM (active); in test [11] it was > 1.58 µM (inactive); in test [12] it was > 6.31 µM (inactive); in [13], 1.26 µM (active); in test [14], > 2 µM (inactive). The inhibitory constant (Ki) in test [15] was 1.26 µM (active); in test [16] it was 3.16 µM (active); in test [17] it was > 2 µM (inactive); on Misshapen-like kinase 1, 0.00631 µM (active); in test [18] it was 0.501 µM (active); on Aurora kinase B, 1 µM (active). In addition, the Ki is 2 µM (active) in [19]; 1.26 µM (active) in test [20]; 3.16 µM (active) in [21]; > 3.98 µM (inactive) in test [22]; > 1.58 µM (inactive) in test [23]; 0.631 µM (active) in test [24]. Besides, the Ki was > 2.51 µM (inactive) in test [25], > 3.98 µM (inactive) in test [26] and > 2.51 µM (inactive) in test [27].

In general, EC50 refers to the concentration at which the effect is half-maximal. The term IC50 denotes the concentration needed to halve the response being measured. The Ki is a measure of affinity in units of concentration, obtained from inhibition or displacement.
